# Patent publication US20240279221A1, “HETEROCYCLIC COMPOUNDS AND METHODS OF USE” (Schrödinger, Inc., priority 2021, published 2024)
# Target: SOS1:KRAS (G12C) interaction (Homo sapiens (Human), UniProt Q07889)
# Assay: SOS1-KRas(G12C) FRET Assay
# Type: binding
# Settings: 0.5 nM His10-SOS1 (res. 564-1049), 2.5 nM GST-KRAS (res. 1-169, G12C); read-out: SOS-KRas(G12C) FRET IC50
# Procedure, shortened: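 Compounds were pre-incubated 15 min at 25° C with SOS1 (His10, res. 564-1049; 0.5 nM final) and anti-6His-XL665, then GST-KRAS G12C (res. 1-169; 2.5 nM final) with anti-GST-Eu(K) was added for 2 h at RT. The buffer was PBS, 0.1% BSA, 5 mM MgCl2, 100 mM KF, 5 mM DTT with 0.5% DMSO. The 665/615 nm signal was normalised to DMSO and no-SOS1 controls, and IC50 and Hill coefficient were fitted by non-linear regression.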
# Chain of SOS1:KRAS (G12C) interaction (Q07889 564-1049, stated change not applied): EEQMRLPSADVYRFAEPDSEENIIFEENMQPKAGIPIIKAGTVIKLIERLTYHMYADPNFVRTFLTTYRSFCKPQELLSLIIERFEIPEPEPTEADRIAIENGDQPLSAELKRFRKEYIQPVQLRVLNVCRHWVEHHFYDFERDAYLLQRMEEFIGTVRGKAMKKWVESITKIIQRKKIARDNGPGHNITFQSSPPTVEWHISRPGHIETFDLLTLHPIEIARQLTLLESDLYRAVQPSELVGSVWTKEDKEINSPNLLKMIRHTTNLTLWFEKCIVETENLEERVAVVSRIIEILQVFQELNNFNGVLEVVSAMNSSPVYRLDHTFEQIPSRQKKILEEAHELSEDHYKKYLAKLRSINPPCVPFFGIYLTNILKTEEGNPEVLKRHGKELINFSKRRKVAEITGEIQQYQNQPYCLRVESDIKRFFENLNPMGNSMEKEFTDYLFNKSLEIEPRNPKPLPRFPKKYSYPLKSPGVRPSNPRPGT
row,Compound,IC50
1,"C[C@@H](Nc1nn(C)c(=O)c2cc(=O)n(C34CNC(C3)C4)cc12)c1cccc(C(F)F)c1F [Example 145, (R)-6-(2-azabicyclo[2.1.1]hexan-4-yl)-4-((1-(3-(difluoromethyl)-2-fluorophenyl)ethyl)amino)-2-methyl-2,6-dihydropyrido[3,4-d]pyridazine-1,7-dione]",83 nM
2,"CC(=O)N1CC2(n3cc4c(N[C@H](C)c5cccc(C(F)F)c5F)nn(C)c(=O)c4cc3=O)CC1C2 [Example 146, (R)-6-(2-acetyl-2-azabicyclo[2.1.1]hexan-4-yl)-4-((1-(3-(difluoromethyl)-2-fluorophenyl)ethyl)amino)-2-methyl-2,6-dihydropyrido[3,4-d]pyridazine-1,7-dione]",70.6 nM
3,"C[C@@H](Nc1nn(C)c(=O)c2cc(=O)n(C3(C(F)F)CCC3)cc12)c1cccc(C(F)F)c1F [Example 147, (R)-4-((1-(3-(difluoromethyl)-2-fluorophenyl)ethyl)amino)-6-(1-(difluoromethyl)cyclo-butyl)-2-methyl-2,6-dihydropyrido[3,4-d]pyridazine-1,7-dione]",32.4 nM
4,"C[C@@H](Nc1nn(C)c(=O)c2cc(=O)n([C@]34COC[C@H]3C4)cc12)c1cccc(C(F)F)c1F [Example 148, 4-[[(1R)-1-[3-(difluoromethyl)-2-fluoro-phenyl]ethyl]amino]-2-methyl-6-[(1S,5S)-3-oxabicyclo[3.1.0]hexan-1-yl]pyrido[3,4-d]pyridazine-1,7-dione]",40.5 nM
5,"CC(=O)N1CC(C)(n2cc3c(N[C@H](C)c4cccc(C(F)F)c4F)nn(C)c(=O)c3cc2=O)C1 [Example 149, (R)-6-(1-acetyl-3-methylazetidin-3-yl)-4-((1-(3-(difluoromethyl)-2-fluorophenyl)ethyl)amino)-2-methylpyrido[3,4-d]pyridazine-1,7(2H,6H)-dione]",34.3 nM
6,"C[C@@H](Nc1nn(C)c(=O)c2cc(=O)n(C3(C)CN(C(=O)C4CC4)C3)cc12)c1cccc(C(F)F)c1F [Example 150, (R)-6-(1-(cyclopropanecarbonyl)-3-methylazetidin-3-yl)-4-((1-(3-(difluoromethyl)-2-fluorophenyl)ethyl)amino)-2-methyl-2,6-dihydropyrido[3,4-d]pyridazine-1,7-dione]",5.5 nM
7,"COC1(C(=O)N2CC(C)(n3cc4c(N[C@H](C)c5cccc(C(F)F)c5F)nn(C)c(=O)c4cc3=O)C2)CC1 [Example 151, (R)-4-((1-(3-(difluoromethyl)-2-fluorophenyl)ethyl)amino)-6-(1-(1-methoxycyclopropane-1-carbonyl)-3-methylazetidin-3-yl)-2-methyl-2,6-dihydropyrido[3,4-d]pyridazine-1,7-dione]",564 nM
8,"C[C@@H](Nc1nn(C)c(=O)c2cc(=O)n(C3(C)CNC3)cc12)c1cccc(C(F)F)c1F [Example 152, (R)-4-((1-(3-(difluoromethyl)-2-fluorophenyl)ethyl)amino)-2-methyl-6-(3-methylazetidin-3-yl)pyrido[3,4-d]pyridazine-1,7(2H,6H)-dione]",248 nM
9,"C[C@@H](Nc1nn(C)c(=O)c2cc(=O)n(C3(C)CN(C(=O)C4(F)CC4)C3)cc12)c1cccc(C(F)F)c1F [Example 153, (R)-4-((1-(3-(difluoromethyl)-2-fluorophenyl)ethyl)amino)-6-(1-(1-fluorocyclopropane-1-carbonyl)-3-methylazetidin-3-yl)-2-methyl-2,6-dihydropyrido[3,4-d]pyridazine-1,7-dione]",86.9 nM
10,"CC(=O)N1CC(C(F)F)(n2cc3c(N[C@H](C)c4cccc(C(F)F)c4F)nn(C)c(=O)c3cc2=O)C1 [Example 154, (R)-6-(1-acetyl-3-(difluoromethyl)azetidin-3-yl)-4-((1-(3-(difluoromethyl)-2-fluorophenyl)ethyl)amino)-2-methylpyrido[3,4-d]pyridazine-1,7(2H,6H)-dione]",18.5 nM
